In patent US20100179188A1, “NITROXIDE RADICAL AS TREATMENT FOR NEURODEGENERATION” (Office of Technology Transfer, NIH, priority 2007, published 2010):

Legend:
[1] = test system: IRP2−/− mice; assay: Hang-test of IRP2−/− mice on Tempo1-supplemented diet; format: in vivo
Description: Mice: IRP2−/− mice were generated, propagated by breeding and genotyped as described in LaVaute et al., Nature Genetics, 27, 209-214 (2001). Mice used in this study have a 129S4/SvJae X C57B1/6 mixed background (specific proportions of each strain are not known). In experiments with mice of same genotype but on different diets siblings were used to minimize phenotypic variation due to differences in genetic background. Mice of different genotypes and on different diets were age and sex matched. All protocols were approved by the National Institute of Child Health and Human Development Animal Care and Use Committee, and met US National Institutes of Health guidelines for the humane care of animals. […]
Hang-test: In the hang-test, mice were allowed to grip a wire mesh that was then inverted. The length of time that a mouse could hang on to an inverted wire mesh before falling (up to a maximum of 60 seconds) was measured and recorded.
A stable nitroxide radical, Tempo1, was administered as a dietary supplement to knockout mice (IRP2−/−), and neurodegeneration was tested using the “hang test,” by which mice were allowed to grasp a wire mesh screen in an inverted position and the length of time that the mice could remain grasping the screen was measured (up to a maximum of 60 seconds). The hang test quantitatively assesses the progression of neurodegeneration in mice. […]

[2] = biological target: T1, cytosolic aconitase (Mus musculus, UniProt P28271); assay: In-gel aconitase assay in mouse embryonic fibroblast lysates, cytosolic aconitase; format: cell-based
T1 construct: Embryonic fibroblasts of 13-day old embryos were isolated from wild type, IRP1−/− mice and IRP2−/− mice; endogenous in cells; host or cells: mouse embryonic fibroblasts (wild type and IRP2−/−)
T1 sequence (P28271 1-889): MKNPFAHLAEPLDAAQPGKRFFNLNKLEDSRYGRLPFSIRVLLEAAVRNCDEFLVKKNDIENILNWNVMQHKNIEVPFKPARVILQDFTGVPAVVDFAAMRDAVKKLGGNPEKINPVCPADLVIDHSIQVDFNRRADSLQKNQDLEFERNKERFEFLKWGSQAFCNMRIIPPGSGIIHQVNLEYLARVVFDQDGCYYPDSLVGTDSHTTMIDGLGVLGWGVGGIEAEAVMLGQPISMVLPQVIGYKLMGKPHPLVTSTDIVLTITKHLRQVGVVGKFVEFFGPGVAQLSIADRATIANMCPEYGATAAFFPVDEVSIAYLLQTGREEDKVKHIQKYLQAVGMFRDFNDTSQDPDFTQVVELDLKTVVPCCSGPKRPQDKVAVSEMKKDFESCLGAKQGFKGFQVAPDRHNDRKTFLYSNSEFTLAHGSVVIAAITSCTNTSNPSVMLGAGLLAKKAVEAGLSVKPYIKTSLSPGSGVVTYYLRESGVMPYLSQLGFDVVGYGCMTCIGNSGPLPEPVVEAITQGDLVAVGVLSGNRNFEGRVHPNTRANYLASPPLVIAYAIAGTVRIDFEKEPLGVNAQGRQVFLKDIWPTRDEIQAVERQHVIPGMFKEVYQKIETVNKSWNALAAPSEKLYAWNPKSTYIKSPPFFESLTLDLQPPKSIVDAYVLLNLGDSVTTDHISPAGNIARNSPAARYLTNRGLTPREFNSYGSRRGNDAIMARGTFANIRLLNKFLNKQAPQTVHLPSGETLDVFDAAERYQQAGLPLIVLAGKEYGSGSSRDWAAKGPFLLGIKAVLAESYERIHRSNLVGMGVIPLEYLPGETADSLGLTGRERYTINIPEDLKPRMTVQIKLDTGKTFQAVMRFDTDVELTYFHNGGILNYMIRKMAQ
Description: Cells: Embryonic fibroblasts of 13-day old embryos were isolated from wild type, IRP1−/− mice and IRP2−/− mice as described in LaVaute et al. supra. Myc-tagged HEK 293 Tet-on cell line, in which IRP2 expression was inducible, was prepared and cultured as described Bourdon et al., Blood Cells Mol Dis, 31, 247-255 (2003). Erythroblasts were harvested from bone marrow and purified as described in Cooperman et al., Blood, 106, 1084-1091 (2005).
Aconitase assay: Aconitase activity gels for human lysates were performed as described in Tong et al., infra, and aconitase activity gels for mouse lysate were performed with the following modifications. The gel was composed of a separating gel containing 6% acrylamide, 132 mM Tris base, 66 mM borate, 3.6 mM citrate, and a stacking gel containing 4% acrylamide, 66 mM Tris base, 33 mM borate, 3.6 mM citrate. The running buffer contains 25 mM Tris pH 8.3, 96 mM glycine, and 3.6 mM citrate. Electrophoresis were carried out at 170 V at 4° C. Spectral aconitase activity was measured by following the method of Fillebeen et al., infra, using cis-aconitate as the substrate.
To confirm that nitroxide radicals activate IRP1 binding by disassembly of the iron-sulfur cluster, we performed in-gel aconitase assays to determine whether Tempo1 decreased the activity of cytosolic aconitase. […] The band that represented the cytosolic aconitase was readily identified by its absence in lysates from IRP1−/− cells. […]
To determine whether the effect of Tempo1 on IRP1 activity was kinetically consistent with oxidative disassembly of the iron sulfur cluster, the effect of Tempo1 on aconitase activity was compared to that of the iron chelator, deferiprone (DFO), which activates IRE-binding activity of IRP1 by limiting de novo synthesis and repair of the iron sulfur cluster in IRP1. […] Recovery of aconitase activity was assessed in wild type and IRP2−/− cells.

## CC1(C)CC(O)CC(C)(C)N1[O] [Tempo1]
[1]; IRP2−/− mice on Tempo1 supplemented diet (10 mg/g of food) vs untreated knockout mice, max 60 seconds
  hang times: substantially increased
[1]; IRP2−/− mice on Tempo1 supplemented diet, hang test, FIG. 1c
  protection from progressive loss of neuromuscular capability: significantly (p value=0.009) protected
[2]; lysates from WT and IRP2−/− embryonic fibroblasts
  activity of cytosolic aconitase: diminished
[2]; mouse embryonic fibroblasts, 16 hours treatment, then fresh unsupplemented media
  time to reversal of the loss of cytosolic aconitase activity after removal: ≤ 2 h
